Values after ≈ are worked out from the molar mass of the structure shown.
What was measured:
Assay in all cases: Broth dilution MIC
Type in all cases: cell-based
[1] = system: CNS GC 4537; conditions: CNS GC 4537; Mueller-Hinton broth, 18 hours at 35° C.; read-out: Antimicrobial Activity (MIC)
Protocol: (§1) The in vitro antibacterial activity of Example 1 through Example 20 is determined against a spectrum of Gram-positive and Gram-negative bacteria by a standard broth dilution method. Serial dilution of the compounds are made in Mueller-Hinton broth and inoculated with a bacterial suspension. The lowest concentration of compound that inhibited the growth of a bacterial strain after 18 hours of incubation at 35° C. is reported as the minimal inhibitory concentration (MIC) for that strain.

[2] = system: CNS GC 4538; conditions: CNS GC 4538; Mueller-Hinton broth, 18 hours at 35° C.; read-out: Antimicrobial Activity (MIC)
Protocol: as §1

[3] = system: CNS GC 4547; conditions: CNS GC 4547; Mueller-Hinton broth, 18 hours at 35° C.; read-out: Antimicrobial Activity (MIC)
Protocol: as §1

[4] = system: E. cloacae GC 3783; conditions: Enterobacter cloacae, GC3783; E. cloacae GC 3783; Mueller-Hinton broth, 18 hours at 35° C.; read-out: Antimicrobial Activity (MIC)
Protocol: as §1

[5] = system: E. coli GC 2203; conditions: Escherichia coli, GC2203; E. coli GC 2203; Mueller-Hinton broth, 18 hours at 35° C.; read-out: Antimicrobial Activity (MIC)
Protocol: as §1

[6] = system: E. coli GC 3226; conditions: Escherichia coli, GC3226; E. coli GC 3226; Mueller-Hinton broth, 18 hours at 35° C.; read-out: Antimicrobial Activity (MIC)
Protocol: as §1

[7] = system: E. coli GC 4559; conditions: Escherichia coli, GC4559; E. coli GC 4559; Mueller-Hinton broth, 18 hours at 35° C.; read-out: Antimicrobial Activity (MIC)
Protocol: as §1

[8] = system: E. coli GC 4560; conditions: Escherichia coli, GC4560, 18 h, read-out: Antimicrobial Activity (MIC)
Protocol: as §1

[9] = system: E. faecalis GC 2242; conditions: Enterococcus faecalis, GC2242; E. faecalis GC 2242; Mueller-Hinton broth, 18 hours at 35° C.; read-out: Antimicrobial Activity (MIC)
Protocol: as §1

[10] = system: E. faecalis GC 4555; conditions: Enterococcus faecalis, GC4555; E. faecalis GC 4555; Mueller-Hinton broth, 18 hours at 35° C.; read-out: Antimicrobial Activity (MIC)
Protocol: as §1

[11] = system: E. faecalis GC 842; conditions: Enterococcus faecalis, GC842; E. faecalis GC 842; Mueller-Hinton broth, 18 hours at 35° C.; read-out: Antimicrobial Activity (MIC)
Protocol: as §1

[12] = system: K. pneumoniae GC 4534; conditions: Klebsiella pneumoniae, GC4534; K. pneumoniae GC 4534; Mueller-Hinton broth, 18 hours at 35° C.; read-out: Antimicrobial Activity (MIC)
Protocol: as §1

[13] = system: M. morganii GC 4531; conditions: Morganella morganii, GC4531; M. morganii GC 4531; Mueller-Hinton broth, 18 hours at 35° C.; read-out: Antimicrobial Activity (MIC)
Protocol: as §1

[14] = system: P. aeruginosa GC 2214; conditions: Pseudomonas aeruginosa, GC2214; P. aeruginosa GC 2214; Mueller-Hinton broth, 18 hours at 35° C.; read-out: Antimicrobial Activity (MIC)
Protocol: as §1

[15] = system: P. aeruginosa GC 4532; conditions: Pseudomonas aeruginosa, GC4532; P. aeruginosa GC 4532; Mueller-Hinton broth, 18 hours at 35° C.; read-out: Antimicrobial Activity (MIC)
Protocol: as §1

[16] = system: P. rettgeri GC 4530; conditions: Providencia rettgeri, GC4530; P. rettgeri GC 4530; Mueller-Hinton broth, 18 hours at 35° C.; read-out: Antimicrobial Activity (MIC)
Protocol: as §1

[17] = system: S. aureus GC 1131; conditions: Staphylococcus aureus, GC1131; S. aureus GC 1131; Mueller-Hinton broth, 18 hours at 35° C.; read-out: Antimicrobial Activity (MIC)
Protocol: as §1

[18] = system: S. aureus GC 2216; conditions: Staphylococcus aureus, GC2216; S. aureus GC 2216; Mueller-Hinton broth, 18 hours at 35° C.; read-out: Antimicrobial Activity (MIC)
Protocol: as §1

[19] = system: S. aureus GC 4536; conditions: Staphylococcus aureus, GC4536; S. aureus GC 4536; Mueller-Hinton broth, 18 hours at 35° C.; read-out: Antimicrobial Activity (MIC)
Protocol: as §1

[20] = system: S. marcescens GC 4077; conditions: Serratia marcescens, GC4077; S. marcescens GC 4077; Mueller-Hinton broth, 18 hours at 35° C.; read-out: Antimicrobial Activity (MIC)
Protocol: as §1

| Structure (SMILES) | MIC [1] [µg/mL] | MIC [2] [µg/mL] | MIC [3] [µg/mL] | MIC [4] [µg/mL] | MIC [5] [µg/mL] | MIC [6] [µg/mL] | MIC [7] [µg/mL] | MIC [8] [µg/mL] | MIC [9] [µg/mL] | MIC [10] [µg/mL] | MIC [11] [µg/mL] | MIC [12] [µg/mL] | MIC [13] [µg/mL] | MIC [14] [µg/mL] | MIC [15] [µg/mL] | MIC [16] [µg/mL] | MIC [17] [µg/mL] | MIC [18] [µg/mL] | MIC [19] [µg/mL] | MIC [20] [µg/mL] |
| --- | --- | --- | --- | --- | --- | --- | --- | --- | --- | --- | --- | --- | --- | --- | --- | --- | --- | --- | --- | --- |
| COc1ccc(N2C(=O)C([C@@H](OC3O[C@H](CN)[C@H](O)[C@H]3OC)[C@H]3O[C@@H](n4ccc(=O)[nH]c4=O)[C@H](O)[C@@H]3O)N(CCCNC(=O)C(NC(=O)C(NC(=O)NC(C(=O)O)C(C)C)C3CCNC(=N)N3)C(O)C(C)C)C2=O)cc1 (stereo partly drawn) [Example 4, 14-[5-((R)-{[(3R,4S,5R)-5-(Aminomethyl)-4-hydroxy-3-methoxytetrahydro-2-furanyl]oxy}{(2S,3S,4R,5R)-5-[2,4-dioxo-3,4-dihydro-1 (2H)-pyrimidinyl]-3,4-dihydroxytetrahydro-2-furanyl}methyl)-3-(4-methoxyphenyl)-2,4-dioxo-1-imidazolidinyl]-9-(1-hydroxy-2-methylpropyl)-6-(2-iminohexahydro-4-pyrimidinyl)-2-isopropyl-4,7,10-trioxo-3,5,8,11-tetraazatetradecan-1-oic acid] | > 32 | > 32 | > 32 | > 32 | > 32 | > 32 | > 32 | > 32 | > 32 | > 32 | > 32 | > 32 | > 32 | > 32 | > 32 | > 32 | > 32 | > 32 | > 32 | > 32 |
| CCCCCCCCCCCCN1C(=O)C([C@@H](OC2O[C@H](CN)[C@H](O)[C@H]2OC)[C@H]2O[C@@H](n3ccc(=O)[nH]c3=O)[C@H](O)[C@@H]2O)N(CCCNC(=O)C(NC(=O)C(NC(=O)NC(C(=O)O)C(C)C)C2CCNC(=N)N2)C(O)C(C)C)C1=O (stereo partly drawn) [Example 5, 14-[5-((R)-{[(3R,4S,5R)-5-(Aminomethyl)-4-hydroxy-3-methoxytetrahydro-2-furanyl]oxy}{(2S,3S,4R,5R)-5-[2,4-dioxo-3,4-dihydro-1 (2H)-pyrimidinyl]-3,4-dihydroxytetrahydro-2-furanyl}methyl)-3-dodecyl-2,4-dioxo-1-imidazolidinyl]-9-(1-hydroxy-2-methylpropyl)-6-(2-iminohexahydro-4-pyrimidinyl)-2-isopropyl-4,7,10-trioxo-3,5,8,11-tetraazatetradecan-1-oic acid] | > 32 | > 32 | > 32 | > 32 | > 32 | > 32 | > 32 | 4 (≈ 3.51 µM) | > 32 | > 32 | > 32 | > 32 | > 32 | > 32 | > 32 | > 32 | > 32 | > 32 | > 32 | > 32 |
| CO[C@H]1C(O[C@H](C(C(=O)O)N(CCCNC(=O)C(NC(=O)C(NC(=O)NC(C(=O)O)C(C)C)C2CCNC(=N)N2)C(O)C(C)C)Cc2ccccc2)[C@H]2O[C@@H](n3ccc(=O)[nH]c3=O)[C@H](O)[C@@H]2O)O[C@H](CN)[C@@H]1O (stereo partly drawn) [Example 6, 16-((R)-{[(3R,4S,5R)-5-(Aminomethyl)-4-hydroxy-3-methoxytetrahydro-2-furanyl]oxy}{(2S,3S,4R,5R)-5-[2,4-dioxo-3,4-dihydro-1 (2H)-pyrimidinyl]-3,4-dihydroxytetrahydro-2-furanyl}methyl)-15-benzyl-9-(1-hydroxy-2-methylpropyl)-6-(2-iminohexahydro-4-pyrimidinyl)-2-isopropyl-4,7,10-trioxo-3,5,8,11,15-pentaazaheptadecane-1,17-dioic Acid] | > 32 | > 32 | > 32 | > 32 | > 32 | > 32 | > 32 | 2 (≈ 1.93 µM) | > 32 | > 32 | > 32 | > 32 | > 32 | > 32 | > 32 | > 32 | > 32 | > 32 | > 32 | > 32 |

Reference: US6727232B2, “Nucleoside peptide antibiotics of AA-896” (Wyeth Holdings Corporation, priority 2001, dated 2004)
